Assay [1] deals with Mus musculus. In words: In vivo activity tested against C3H mice bearing panc-03 murine tumor measured as % treated/control calculated at 700 mg/kg (po). The assay is classed as functional.
Assay [2] relates to Mus musculus. Briefly: In vivo activity tested against C3H mice bearing panc-03 murine tumor measured as body weight loss at 700 mg/kg (po). It is filed as functional.
The subject of assay [3] is Mus musculus. In words: In vivo activity tested against C3H mice bearing panc-03 murine tumor measured as log Kill value was based on tumors that grew at 700 mg/kg (po). The assay is classed as functional, organism-based. Also noted: dose 700 mg/kg.
Assay [4] relates to Mus musculus. In words: In vivo activity tested against C3H mice bearing panc-03 murine tumor measured as % treated/control calculated at 800 mg/kg (po). It is filed as functional.
In assay [5] the test system is Mus musculus. Briefly: In vivo activity tested against C3H mice bearing panc-03 murine tumor measured as body weight loss at 800 mg/kg (po). The assay is classed as functional.
Assay [6] relates to Mus musculus. In words: In vivo activity tested against C3H mice bearing panc-03 murine tumor measured as log Kill value was based on tumors that grew at 800 mg/kg (po). The assay is classed as functional, organism-based. Also on record: dose 800 mg/kg.
Assay [7] has as its system Mus musculus. In words: In vivo activity tested against C3H mice bearing panc-03 murine tumor measured as body weight loss at 1085 mg/kg (po). It is filed as functional.
The subject of assay [8] is Mus musculus. Briefly: In vivo activity tested against C3H mice bearing panc-03 murine tumor measured as % treated/control calculated at 1085 mg/kg (po). The assay is classed as functional.
The subject of assay [9] is Mus musculus. In words: In vivo activity tested against C3H mice bearing panc-03 murine tumor measured as log Kill value was based on tumors that grew at 1085 mg/kg (po). The assay is classed as functional, organism-based. Also noted: dose 1085 mg/kg.
Assay [10] concerns Mus musculus. Briefly: In vivo activity tested against C3H mice bearing panc-03 murine tumor measured as activity rating at 1085 mg/kg (po). It is filed as functional.
Assay [11] relates to Mus musculus. In words: In vivo activity tested against C3H mice bearing panc-03 murine tumor, measured as cures at 1085 mg/kg (po); 3/5 cures. It is filed as functional.
Assay [12] has as its system Mus musculus. Briefly: In vivo activity tested against C3H mice bearing mammary adenocarcinoma -17/ADR tumor measured as body weight loss at 1250 mg/kg (po). It is filed as functional.
Assay [13] deals with Mus musculus. In words: In vivo activity tested against C3H mice bearing mammary adenocarcinoma -17/ADR tumor measured as body weight loss at 750 mg/kg (po). The assay is classed as functional.
The subject of assay [14] is Mus musculus. In words: In vivo activity tested against C3H mice bearing mammary adenocarcinoma -17/ADR tumor measured as % treated/control calculated at 1250 mg/kg (po). It is filed as functional.
Assay [15] deals with Mus musculus. In words: In vivo activity tested against C3H mice bearing mammary adenocarcinoma -17/ADR tumor measured as % treated/control calculated at 750 mg/kg (po). It is filed as functional.
Assay [16] has as its system Mus musculus. Briefly: In vivo activity tested against C3H mice bearing mammary adenocarcinoma -17/ADR tumor measured as log Kill value was based on tumors that grew at 750 mg/kg (po). The assay is classed as functional, organism-based. Also on record: dose 750 mg/kg.
The test system of assay [17] is Mus musculus. Briefly: In vivo activity tested against C3H mice bearing mammary adenocarcinoma -17/ADR tumor measured as log Kill value was based on tumors that grew at 1250 mg/kg (po). The assay is classed as functional, organism-based. Also noted: dose 1250 mg/kg.
Assay [18] concerns Mus musculus. Briefly: In vivo activity against iv transplanted AML Leukemia 1498 tumors of mice; Not active. The assay is classed as functional, organism-based.
Assay [19] concerns Mus musculus. In words: In vivo activity against transplanted Mam-16/C/ Taxol tumors of mice; Not active. It is filed as functional, organism-based.
Assay [20] has as its system Mus musculus. In words: In vivo activity against transplanted Mam-16/C/Adr tumors of mice; Not active. The assay is classed as functional, organism-based.
Assay [21] deals with Mus musculus. Briefly: In vivo activity against transplanted Mam-17 tumors of mice; Not active. It is filed as functional, organism-based.
The test system of assay [22] is Mus musculus. In words: In vivo activity against transplanted Mam-17/Adr tumors of mice; Not active. The assay is classed as functional, organism-based.
Assay [23] deals with Mus musculus. Briefly: In vivo activity against transplanted Mel-B16 tumors of mice; Not active. It is filed as functional, organism-based.
Assay [24] deals with Mus musculus. Briefly: In vivo activity against transplanted Panc-02 tumors of mice; Not active. The assay is classed as functional, organism-based.
The test system of assay [25] is Mus musculus. Briefly: In vivo activity against transplanted Panc-03 tumors of mice; Not active. The assay is classed as functional, organism-based.
Assay [26] relates to Mus musculus. In words: In vivo activity against transplanted colon-51 tumors of mice; Not active. It is filed as functional, organism-based.
Assay [27] concerns Mus musculus. In words: In vivo activity against iv transplanted Leukemia L1210 tumors of mice. It is filed as functional, organism-based.
The test system of assay [28] is Mus musculus. Briefly: In vivo activity against transplanted Mam-16/C tumors of mice. It is filed as functional, organism-based.
In assay [29] the test system is Mus musculus. Briefly: In vivo activity against transplanted Squam lung-LC12 tumors of mice. It is filed as functional, organism-based.
Assay [30] relates to Mus musculus. In words: In vivo activity against transplanted colon-26 tumors of mice. The assay is classed as functional, organism-based.
Assay [31] relates to Mus musculus. Briefly: In vivo activity against transplanted colon-38 tumors of mice. It is filed as functional, organism-based.

Results on five molecules are retold here after ChEMBL document CHEMBL1134487, “Design, synthesis, and biological evaluation of analogues of the antitumor agent, 2-(4-[(7-chloro-2-quinoxalinyl)oxy]phenoxy)propionic acid (XK469)” (2001).

Calls of active or inactive are those of the source. The calls are words filed in the database; no cut-off is given here.

A word on the T/C: it is the ratio of treated to control. For `CC(Oc1ccc(Oc2cnc3cc([N+](=O)[O-])ccc3n2)cc1)C(=O)O` (stereo unspecified), the T/C in the assay on Mus musculus [1] is reported as 41%. In the assay with Mus musculus [2], the Body weight loss is -1.4%. The Log kill with Mus musculus [3] stood at 0.42.
With `CC(Oc1ccc(Oc2cnc3ccc(Cl)cc3n2)cc1)C(=O)NN` (stereo unspecified), the T/C in the assay with Mus musculus [4] is on record as 27%. Also, the Body weight loss with Mus musculus [5] was -6.5%. Besides, the Log kill in the assay on Mus musculus [6] came to 0.75.
As to `CC(Oc1ccc(Oc2cnc3ccc(F)cc3n2)cc1)C(=O)O` (stereo unspecified), the Body weight loss in the assay on Mus musculus [7] is on record as -13%. In addition, the T/C with Mus musculus [8] was 0%. The Log kill with Mus musculus [9] is 3.7. Moreover, the Activity rating in the assay with Mus musculus [10] is >2.8. For the same molecule, the Cures with Mus musculus [11] is 3.
For the molecule `Cc1ccc2ncc(Oc3ccc(OC(C)C(=O)O)cc3)nc2c1` (stereo unspecified), the Body weight loss in the assay on Mus musculus [12] is reported as 7.1%; in the assay with Mus musculus [13], 4.3%. In addition, the T/C is recorded as 21% with Mus musculus [14] and 47% in the assay on Mus musculus [15]. In addition, the Log kill came to 0.38 in the assay on Mus musculus [16] and 0.63 in the assay on Mus musculus [17].
With `Nc1ccn([C@@H]2O[C@H](CO)[C@@H](O)C2(F)F)c(=O)n1`, the NA result with Mus musculus [18], in the assay with Mus musculus [19], with Mus musculus [20], in the assay with Mus musculus [21], in the assay on Mus musculus [22] and in the assay with Mus musculus [23] was “inactive” in each case. For the same molecule, the NA entry in the assay with Mus musculus [24], in the assay with Mus musculus [25] and with Mus musculus [26] was “inactive” each time. Besides, the Log kill is > 5 with Mus musculus [27]; > 2.8 with Mus musculus [28]; < 0.7 in the assay with Mus musculus [29]; 2.8 in the assay with Mus musculus [30]; 2.8 in the assay with Mus musculus [31].
